The values that follow are results of earlier work, collected in US9848760B2, “Devices for continual monitoring and introduction of gastrointestinal microbes” (Gearbox, LLC, priority 2009, dated 2017).

Data set [1] deals with enterotoxigenic Escherichia coli (ETEC). The note with it: ETEC infection, MIC90 level, FIG. 17.
Data set [2] concerns intestinal microbes.
Setting [3] is: infant stool, associated with treatment.
[4] abbreviates: infant treated at 4 months of age, relative to reference microbial profile at 1 month of age.

Consider `CC1(C)S[C@@H]2[C@H](NC(=O)[C@H](N)c3ccccc3)C(=O)N2[C@H]1C(=O)O` [AMP, ampicillin], for which the MIC values result in data set [1] is recorded as “high”.

As to `COc1cc(Cc2cnc(N)nc2N)cc(OC)c1OC` [TMP, trimethoprim], in data set [1], the MIC values result is recorded as “high”.

For the compound `CC1(C)S[C@@H]2[C@H](NC(=O)[C@H](N)c3ccc(O)cc3)C(=O)N2[C@H]1C(=O)O` [amoxicillin], in data set [2] (setting [3]), the abundance of bacilli result was “increases” and the “abundance of gamma proteobacteria” value is listed as “reductions”. For the same compound, in data set [2] (setting [4]), the “bacterial composition in stool samples” value is reported as “altered” and the “total bacterial density in stool samples” value is recorded as “decrease”.

For the compound TMP/sulfamethoxazole [SXT], the MIC values entry in data set [1] is reported as “high”.
